Source: BindingDB's records for doi:10.1021/jm00019a006 (Glaxo Wellcome Medicines Research Centre, 1995)

Experiment: The compound was tested for binding affinity against Tachykinin receptor 1 from rabbit cortex

O=C1OC2(CCN(CCc3c[nH]c4ccc(F)cc34)CC2)CN1Cc1ccccc1
Ki: 7.94 µM
